Molecules are shown by their SMILES. Bounds are passed on as bounds.

One molecule from patent US11492629B2, “Extra-chromosomal circular DNA-mediated engineering of plant traits” (Kansas State University Research Foundation, priority 2019, dated 2022) can be followed below.

Common to all, as to assay type: in vivo, Amaranthus palmeri
For test [1], the system named is GS A. palmeri plants (<20 EPSPS copies). Briefly: Glyphosate selection of glyphosate-susceptible (GS) seedlings in greenhouse, plant survival. An excerpt:
(§1) To investigate the evolution of resistance to glyphosate in response to glyphosate selection pressure, we exposed GS plants (<20 EPSPS copies) to glyphosate for one generation to determine the EPSPS copy number and eccDNA variation in each generation and assess the possibility of evolution of resistance to continuous exposure to glyphosate via eccDNA containing EPSPS gene amplification. This process can be repeated for 6 to 8 generations. We also initiated experiments to examine the reversal of glyphosate resistance to susceptibility in the absence of glyphosate selection pressure by growing GR plants (>80-100 EPSPS copies) in the absence of glyphosate selection and generating progenies by random mating. This process can be repeated for 6 to 8 generations. A portion of progenies will be screened for susceptibility or resistance to glyphosate and determine the EPSPS gene copies and presence or absence of eccDNA in each generation.
Approximately 1,009 seedlings were grown in greenhouse and treated with 0.25, 0.5 and 1× glyphosate (1×: 840 g ae/ha). The survivors have been selected for seed production of G-2 seed. Leaf tissue from 40 plants were collected for copy number analysis before the treatment with glyphosate. Additionally, the leaf samples were also collected from plants (at least 5) that survived glyphosate application.

Test [2] concerns progeny of GR A. palmeri plants (>80-100 EPSPS copies). Briefly: Response to 1x glyphosate of progeny from randomly mated glyphosate-resistant (GR) plants grown without selection.
Excerpt: as §1
The progeny generated from random mating of GR plants (>80-100 EPSPS copies) were used in this study. The seed collected from two GR plants (allowed to mate randomly) were planted and seedlings were generated. Approximately 100 plants from each GR plant were grown in the greenhouse without exposure to glyphosate for seed production. Additionally, approximately 127 seedlings from each of the above GR plant were also grown separately and treated with 1× dose of glyphosate to assess their response. Leaf tissue from 40 plants each was also collected for only EPSPS copy number analysis.

Test [3] deals with A. palmeri plants. Briefly: Whole-plant glyphosate treatment of field-collected A. palmeri, injury versus untreated check. The settings on record: 868 g ae ha plus 2% (w/v) ammonium sulfate. An excerpt:
A. palmeri plants used in this study were generated from seeds collected from a field near Manhattan, Kans., USA, where there was incident of lack of control of this population with glyphosate application in the previous season. This field was exposed to frequent applications of glyphosate in Roundup Ready soybean, grown in rotation. Seed of A. palmeri was randomly sampled from ten plants and pooled. Sixty seedlings from the above sample along with a known glyphosate-susceptible (GS) A. palmeri were germinated and seedlings were transplanted individually into Miracle-Gro potting mix (Marysville, Ohio) in 10 cm×10 cm×10 cm plastic pots and watered from top in a greenhouse (25/20° C. temperature; 15/9 h light day/night, supplemented with […] illumination using sodium vapor lamps). At least 20 plants (10 to 12 cm tall) were treated separately with field use rate [868 g ae ha^−1 plus 2% (w/v) ammonium sulfate] or twice the field use rate of glyphosate. […] Plant survival was assessed four weeks after treatment.
In response to glyphosate treatment [868 g ae ha′ plus 2% (w/v) ammonium sulfate], plants showing injury levels of high (>80%) and low (<30%) in comparison to untreated check were grouped as GS and glyphosate-resistant (GR), respectively. […] DNA was quantified on Nanodrop Spectrophotometer.

Setting [4] is: glyphosate rate 0.25X (1X: 840 g ae/ha), 160 treated plants.
[5] abbreviates: glyphosate rate 0.5X (1X: 840 g ae/ha), 430 treated plants.
The mark [6] stands for this setting: glyphosate rate 1X (1X: 840 g ae/ha), 419 treated plants.
[7] abbreviates: seedlings from plant GR1, 1x glyphosate, 127 plants treated.
The mark [8] stands for this setting: seedlings from plant GR2, 1x glyphosate, 122 plants treated.

Regarding `O=C(O)CNCP(=O)(O)O` [Glyphosate, N-(phosphonomethyl) glycine], the “% survival” value was 16% in test [1] (glyphosate rate 0.25X (1X: 840 g ae/ha)); 4% in test [1] (glyphosate rate 0.5X (1X: 840 g ae/ha)); 3% in test [1] (glyphosate rate 1X (1X: 840 g ae/ha)); 68% in test [2] (seedlings from plant GR1, 1x glyphosate); 72% in test [2] (seedlings from plant GR2, 1x glyphosate). Further, the Alive in test [1] (setting [4]) is on record as 26; in test [1] (setting [5]), 18; in test [1] (setting [6]), 13; in test [2] (setting [7]), 86; in test [2] (setting [8]), 88. In addition, the Dead in test [1] (setting [4]) is given as 134; in test [1] (setting [5]), 412; in test [1] (setting [6]) it was 406; in test [2] (setting [7]) it was 41; in test [2] (setting [8]), 34. Besides, the “injury level in comparison to untreated check” value is reported as below 30% in test [3] (plants grouped as GR (low injury)) and above 80% in test [3] (plants grouped as GS (high injury)).
